Consider six compounds from US8604053B2, “TRPV1 antagonists” (AbbVie Inc., priority 2008, dated 2013).

One data set addresses T1, CYP3A4 (Homo sapiens, UniProt P08684).
T1 construct: human liver microsomes (BD Gentest, 450 μL; final concentration: 0.4 mg/mL); tissue BD Gentest; host or cells: human liver microsomes
Briefly: CYP3A4 inhibition assay. The format is in vitro ADME. To be noted: human liver microsomes, substrate BZQ; for inhibition at 25 min, 2.2 µM: pH 7.4, probe 7-benzyloxyquiniline (BZQ), 50 μM final, read-out: CYP3A4 % inh @ 2.2 μM. On the procedure:
Luciferin-H was used as the substrate for CYP2C9; 3-[2-(N,N-diethyl-N-methylammonium)ethyl]-7-methoxy-4-methylcoumarin (AMMC) was used as the substrate for CYP2D6; 7-benzyloxyquiniline (BZQ) was used as the substrate for CYP3A4.
Pre-Incubation Mixture Preparation for CYP3A4: A pre-incubation mixture was prepared by combining 100 mM phosphate buffer (19.35 mL; pH 7.4), human liver microsomes (BD Gentest, 450 μL; final concentration: 0.4 mg/mL), and 10 mM nicotinamide adenine dinucleotide phosphate in 65.4 mM MgCl2 hexahydrate (225 μL; final concentration: 100 μM and 654 μM, respectively). To this was mixture was added a ‘regeneration’ mixture (225 μL) of 333 mM glucose-6-phosphate and 40 U/mL glucose-6-phosphate dehydrogenase in 5 mM sodium citrate (final concentration: 3.3 mM, 0.4 U/mL, and 0.05 mM, respectively).
Substrate Mixture Preparation for CYP3A4: To a solution of 100 mM phosphate buffer, (2.36 mL, pH 7.4) was added 30 mM BZQ in acetonitrile (40 μL; final solution concentration 0.5 mM, final assay concentration 50 μM).
CYP3A4 Inhibiton Assay: To each well in the assay plate containing varying concentrations of test compound or control compound in DMSO (10 μL), CYP3A4 Pre-Incubation Mixture (90 μL) was added to the wells and the assay plate was pre-incubated for 10 minutes at 37° C., with shaking or rocking. A pre-read of each well was performed at 405 nm and 535 nm extinction/emission. CYP3A4 Substrate Mixture (10 μL) was added to all wells and the assay plate was incubated for an additional […] at 37° C., with shaking or rocking. Final DMSO concentration was 1%. A post-read of each well was then performed at 405 nm and 535 nm extinction/emission.
For orientation: Liver microsomes are a subcellular fraction often used to study metabolism.

Data set [1] deals with T2, human TRPV1 receptor (hTRPV1) (Homo sapiens, UniProt Q8NER1).
T2 construct: expressed in transfected cells
T2 sequence (Q8NER1 whole entry): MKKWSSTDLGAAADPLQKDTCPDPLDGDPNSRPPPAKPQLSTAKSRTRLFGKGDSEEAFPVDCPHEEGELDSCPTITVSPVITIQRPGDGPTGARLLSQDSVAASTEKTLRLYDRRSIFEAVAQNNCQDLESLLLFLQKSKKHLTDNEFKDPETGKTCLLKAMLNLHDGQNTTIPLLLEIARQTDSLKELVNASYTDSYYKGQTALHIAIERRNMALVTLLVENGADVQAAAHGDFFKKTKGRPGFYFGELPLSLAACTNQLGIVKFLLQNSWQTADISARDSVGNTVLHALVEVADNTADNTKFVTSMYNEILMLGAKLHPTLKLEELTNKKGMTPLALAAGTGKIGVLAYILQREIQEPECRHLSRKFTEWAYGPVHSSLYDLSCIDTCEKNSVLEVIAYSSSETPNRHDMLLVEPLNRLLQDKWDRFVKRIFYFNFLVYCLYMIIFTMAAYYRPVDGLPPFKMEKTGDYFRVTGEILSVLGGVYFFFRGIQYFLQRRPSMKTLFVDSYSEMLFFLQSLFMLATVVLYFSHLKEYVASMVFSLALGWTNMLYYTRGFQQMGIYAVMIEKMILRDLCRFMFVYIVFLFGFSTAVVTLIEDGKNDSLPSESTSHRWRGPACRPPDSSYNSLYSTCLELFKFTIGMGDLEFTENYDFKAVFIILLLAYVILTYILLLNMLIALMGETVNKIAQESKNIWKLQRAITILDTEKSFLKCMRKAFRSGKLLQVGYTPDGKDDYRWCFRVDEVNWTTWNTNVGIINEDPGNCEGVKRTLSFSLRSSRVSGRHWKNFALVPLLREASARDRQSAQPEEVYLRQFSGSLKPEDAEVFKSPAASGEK
Briefly: Capsaicin activation assay (Ca2+ influx, FLIPR). The data set is classed as cell-based. The note with it: hTRPV1 in 1321N1 cells, 0.05 μM capsaicin. In short, it runs like this:
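1321N1 astrocytoma cells stably expressing recombinant hTRPV1, loaded with Fluo-4 AM (2 μM, 1-2 h, 23 °C); compounds added 3 min before capsaicin (0.05 μM final), 11-point half-log range. Peak FLIPR fluorescence over baseline as % of capsaicin control; IC50 from four-parameter Hill fit.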

Data set [2] in a line: Assessment of hemodynamic profile in anesthetized rat. The format is in vivo. The note with it: i.v. infusion 3, 10 and 30 mg/kg/30 minutes/dose, relative to vehicle control group. On the procedure:
Male Sprague-Dawley rats were anesthetized with Inactin, instrumented, and allowed to stabilize. Following a 30 minute baseline period, test compound was infused via intravenous administration at 3, 10, and 30 mg/kg/30 minutes/dose in a low volume PEG-400 vehicle (1 mL/kg) or 20:40:40 dimethylacetamide:propylene glycol:PEG-400 vehicle (1 mL/kg). A separate group of animals received infusion of vehicle alone. Mean arterial pressure (MAP) and heart rate (HR) were observed and recorded.

T1 sequence (P08684 whole entry): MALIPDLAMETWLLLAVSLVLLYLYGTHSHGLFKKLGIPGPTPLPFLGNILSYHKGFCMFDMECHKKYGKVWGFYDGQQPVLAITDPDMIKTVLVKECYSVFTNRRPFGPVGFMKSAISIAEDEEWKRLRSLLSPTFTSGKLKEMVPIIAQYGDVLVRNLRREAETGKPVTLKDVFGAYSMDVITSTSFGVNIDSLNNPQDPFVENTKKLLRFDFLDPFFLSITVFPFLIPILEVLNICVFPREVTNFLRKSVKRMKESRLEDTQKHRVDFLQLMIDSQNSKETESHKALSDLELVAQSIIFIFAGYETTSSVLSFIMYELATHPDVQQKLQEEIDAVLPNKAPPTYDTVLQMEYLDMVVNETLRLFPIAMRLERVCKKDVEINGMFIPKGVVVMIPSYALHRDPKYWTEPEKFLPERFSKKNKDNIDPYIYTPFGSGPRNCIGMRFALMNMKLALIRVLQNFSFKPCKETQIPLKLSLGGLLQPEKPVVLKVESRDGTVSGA

In general, IC50 refers to the midpoint of a concentration-inhibition curve. For the compound “N-[(4R)-2,2-diethyl-8-fluoro-3,4-dihydro-2H-chromen-4-yl]-N-(3-methylisoquinolin-5-yl)urea [Example 62]”, the “CYP3A4 % inh @ 2.2 μM” value on CYP3A4 came out at 0%. In data set [1], this compound displayed a 50% inhibitory concentration (IC50) of 0.004 µM. Moreover, in data set [2], the “Change in MAP or HR ≧ 15% ?” value was “No (an observed increase or decrease of less than or equal to 15% in MAP (mean arterial pressure) or HR (heart rate) in the test group of animals relative to the vehicle control group is indicated as “No” in the table)”.

For “N-[(4R)-2,2-diethyl-6-fluoro-3,4-dihydro-2H-chromen-4-yl]-N-(3-methylisoquinolin-5-yl)urea [Example 56]”, the “CYP3A4 % inh @ 2.2 μM” value on CYP3A4 is recorded as 17%. In addition, in data set [1], the IC50 is 0.015 µM. In data set [2], the “Change in MAP or HR ≧ 15% ?” value was “No (an observed increase or decrease of less than or equal to 15% in MAP (mean arterial pressure) or HR (heart rate) in the test group of animals relative to the vehicle control group is indicated as “No” in the table)”.

Consider `Cc1cc2c(NC(=O)N[C@@H]3CC(C)(C)Oc4cc(F)ccc43)c(F)ccc2cn1` [Example 123, N-[(4R)-7-fluoro-2,2-dimethyl-3,4-dihydro-2H-chromen-4-yl]-N′-(6-fluoro-3-methylisoquinolin-5-yl)urea], for which, at CYP3A4, the inhibition at 25 min, 2.2 µM was 49%. Also, the concentration for half-maximal inhibition (IC50) in data set [1] was 0.027 µM. For the same compound, the “Change in MAP or HR ≧ 15% ?” value in data set [2] is “No (an observed increase or decrease of less than or equal to 15% in MAP (mean arterial pressure) or HR (heart rate) in the test group of animals relative to the vehicle control group is indicated as “No” in the table)”.

With “N-[(4R)-6,8-difluoro-2,2-dimethyl-3,4-dihydro-2H-chromen-4-yl]-N-(3-methylisoquinolin-5-yl)urea [Example 98]”, at CYP3A4, the “CYP3A4 % inh @ 2.2 μM” value is 0%. For the same compound, the IC50 in data set [1] was determined as 0.017 µM. Further, in data set [2], the “Change in MAP or HR ≧ 15% ?” value is on record as “Yes (An observed increase or decrease of greater than 15% in MAP (mean arterial pressure) or HR (heart rate) in one or more of the animals in the test group relative to the vehicle control group is indicated as “Yes” in the table)”.

Turning to `Cc1cc2c(NC(=O)N[C@@H]3C[C@@](C)(C(F)F)Oc4cc(Cl)ccc43)cccc2cn1` (single isomer, unassigned) [Example 124], at CYP3A4, the inhibition at 25 min, 2.2 µM turned out to be 21%. For the same compound, the half-inhibitory concentration (IC50) in data set [1] turned out to be 0.006 µM. For the same compound, the “Change in MAP or HR ≧ 15% ?” value in data set [2] is listed as “No (an observed increase or decrease of less than or equal to 15% in MAP (mean arterial pressure) or HR (heart rate) in the test group of animals relative to the vehicle control group is indicated as “No” in the table)”.

`Cc1cc2c(NC(=O)N[C@@H]3CC(C)(C)Oc4cc(Cl)ccc43)cccc2cn1` [Example 97, N-[(4R)-7-chloro-2,2-dimethyl-3,4-dihydro-2H-chromen-4-yl]-N′-(3-methylisoquinolin-5-yl)urea]: on CYP3A4, the inhibition at 25 min, 2.2 µM came out at 0%. The compound further displayed a concentration for half-maximal inhibition (IC50) in data set [1] of 0.007 µM. Besides, the “Change in MAP or HR ≧ 15% ?” value in data set [2] is given as “Yes (An observed increase or decrease of greater than 15% in MAP (mean arterial pressure) or HR (heart rate) in one or more of the animals in the test group relative to the vehicle control group is indicated as “Yes” in the table)”.
